Data from patent publication US5582832A, “Compositions for topical application to skin” (priority 1995, dated 1996).

What was measured:
[1] = tested on: histamine induced erythema; settings: cited from earlier work
keratinocytes = experiment: Rate of DNA synthesis (3H-thymidine incorporation) in keratinocytes; assay type: cell-based, human
Experimental: (§1) 1. Normal human keratinocytes isolated from neonatal foreskins by trypsin treatment were grown in DME medium/10% fetal calf serum in the presence of irradiated 3T3 mouse fibroblasts for establishing dividing keratinocyte colonies. Keratinocytes were grown under the above condition until their third passage.
2. For the experiments, third passage keratinocytes were plated into a serum-free keratinocyte growth medium (KSFM; obtained from Life Technologies, Grand Island, N.Y.) containing 0.09 mM calcium. 20,000 to 30,000 cells were plated into each well of 24 well cell culture plates and grown for 5 days, until the cells reach about 80% confluence.
3. Medium was changed to fresh medium and the various test materials were added to the medium from an ethanolic stock solution (10:00 AM). The final ethanol concentration in the cultures was kept below 0.2%. Control cultures received no tested material but were dosed with 0.2% ethanol. Each compound or combination was tested in three separate wells. By 4:00 PM, 1 uCi of ^3 H-thymidine (Amersham Corp., Sp activity 40 Ci/mmol) was added to the 1 ml medium in each well. The cells were incubated overnight and […] (10:00 AM next day) the amount of ^3 -thymidine associated with the cellular DNA of keratinocytes was assessed as described below.
4. The medium was aspirated, and the wells washed with 1 ml phosphate-buffered saline. The DNA and proteins of the cells in the plate were then precipitated by adding 1 ml of ice-cold 10% trichloroacetic acid (TCA). The plates were left on ice for 30 minutes to complete the precipitation process. TCA was then aspirated and each well was then washed four times with 5% TCA. The plates were then dried on a filter pad and the cells in the wells were dissolved in 0.5 ml of 0.1N sodium hydroxide. The sodium hydroxide was then neutralized using 0.1N hydrochloric acid and the solution (1 ml total volume) was then transferred to a scintillation vial. 50 μl samples from each vial were used for protein assay using BCA protein assay reagent obtained from Pierce Chemical Company. 8 ml of a scintillation fluid (Ecolume) was added to the rest of the solution in the vial, and the vials were counted in a scintillation counter to determine the amount of radioactivity in each vial. The DNA synthesis rate was then calculated as cpm ^3 H thymidine incorporated into total cellular DNA/microgram of cell protein for each individual well. Mean and standard deviation for each group was also calculated.
Rationale for using 1,25D is that in in vivo situation, these azoles will inhibit the endogenous degradation of the 1,25D which is obtained from the circulation. Azoles will act in keratinocytes to increase the endogenous levels of 1,25D within cells. Keratinocytes (70% confluent) were incubated with 10 uM of the different azoles in the presence of 100 nM 1,25D. One of the groups was treated with 5 uM of ceramide of Formula A in the medium. After four hours, all the wells were treated with 1 uCi ^3 H-thymidine and the rate of DNA synthesis was estimated as described in the methods.
Keratinocytes were incubated with 1 or 10 uM of Econazole in the presence of 1 uM of the different ceramide analogues and 100 nM 1,25D in the medium. Thymidine incorporation was measured with an overnight incubation as described in Example 2.

[2] = tested on: 1,25D degradation (vitamin D metabolism in keratinocytes); experiment: Vitamin D metabolism in keratinocytes: 1,25D degradation; assay type: cell-based, human; settings: for 1,25D (% degradation): Table 3, 10 uM
Experimental: as §1
(§2) 80% confluent keratinocytes were incubated with 0.05 uCi of ^3 H-25D or ^3 H-1,25D for two hours or 20 hours in the presence of 1-100 uM of the different compounds. Reaction was stopped by addition of methanol and the cells and medium were extracted using chloroform:methanol. The chloroform layer was separated, dried and spotted on TLC plates. […] The amount of radioactivity in each lane was quantitated using the BioScan radioactive plate reader. The amount of radioactivity remaining in the peak area of 25D and 1,25D were calculated as % of control. The % remaining was subtracted from 100 to get the % degradation of the metabolites.
(§3) The data are expressed as mean of % degradation of 25D or 1,25D. The range is also given in parenthesis.

[3] = tested on: 25D degradation (vitamin D metabolism in keratinocytes); experiment: Vitamin D metabolism in keratinocytes: 25D degradation; assay type: cell-based, human; settings: for 25D (% degradation): Table 3, 10 uM
Experimental: as §1, §2, §3

vitamin D metabolism = settings: cited from earlier work
[4] = Table 2, 1 uM, 20 hour incubation, mean of duplicate (range)

SMILES	direct anti-inflammatory activity (in words) [1]	DNA synthesis, % of control (100 nM 1,25D + 5 uM ceramide Formula A) (keratinocytes; Table 4, 10 uM azole (or no azole) + 100 nM 1,25D + 5 uM ceramide Formula A, mean + SD, * = synergistic effect, 1440 min)	DNA synthesis, % of control (azole, only 100 nM 1,25D) (keratinocytes; Table 4, 10 uM azole, 100 nM 1,25D, no ceramide, mean + SD, 1440 min)	DNA synthesis (% control) (keratinocytes; Tables 4A-4F, 100 nM 1,25D, azole 10 uM, ceramide Formula A 5 uM, 1440 min)	DNA synthesis (keratinocytes; Tables 4A-4F, 100 nM 1,25D, azole 10 uM, ceramide Formula A 5 uM, mean + SD)	blocking of 1,25D degradation (in words) ([2]; 1 uM, 20 hours (Table 2))	blocking of 1,25D metabolism (in words) ([2]; 2 hours)	blocking of 1,25D metabolism (in words) ([2]; 20 hours)	% degradation (1,25D) ([2]; Table 1, 10 uM compound)	1,25D degradation (%) [2, 4]	1,25D (% degradation) ([2]; 2 hours)	1,25D (% degradation) ([2]; 20 hours)	blocking of 25D degradation (in words) ([3]; 1 uM, 20 hours (Table 2))	blocking of 25D metabolism (in words) ([3]; 2 hours)	blocking of 25D metabolism (in words) ([3]; 20 hours)	% degradation (25D) ([3]; Table 1, 10 uM compound)	25D degradation (%) [3, 4]	25D (% degradation) ([3]; 2 hours)	25D (% degradation) ([3]; 20 hours)	inhibition of vitamin D metabolism (in words) (vitamin D metabolism)
c1ccc(-c2ccc(C(c3ccccc3)n3ccnc3)cc2)cc1 (centres unmarked) [Bifonazole]	direct anti-inflammatory activity	44.4 + 7.3 % of control	75.8 + 4.3 % of control	75.8 % control	111256 + 6355 cpm 3H thymidine incorporated	very effective	ineffective	very effective	56%	37.0 (25.4-48.6) %	83%	56%	very effective	ineffective	very effective	15%	41.2 (35.4-47.1) %	89%	15%	–
CC(=O)N1CCN(c2ccc(OCC3COC(Cn4ccnc4)(c4ccc(Cl)cc4Cl)O3)cc2)CC1 (centres unmarked) [Ketoconazole, ketoconazole]	–	–	–	–	–	–	–	–	–	–	–	–	–	–	–	–	–	–	–	established inhibitor of vitamin D metabolism
